According to patent US4600788A, “4'-flavonecarboxylic acids and pharmaceutically acceptable derivatives their preparation, and their application” (Societe Cortial, S.A., priority 1983, dated 1986):
Counter-ions that a name gives are not always drawn.

Columns and labels:
Toxicity in mice = format: in vivo; settings: mouse, in vivo
aldose reductase = target: T1, aldose reductase (Bos taurus, UniProt P16116); experiment: Inhibition of aldose reductase in vitro (reduction of glyceraldehyde to glycerol, spectrophotometric NADPH determination); format: biochemical; settings: enzyme from beef crystalline lens; substrate glyceraldehyde; read-out: log 1/CI50 (CI50 = concentration in mole/l resulting in 50% inhibition of the enzymatic activity) (converted)
T1 construct: The enzyme is extracted from beef crystalline lens; from tissue; host or cells: beef crystalline lens
Procedure: The enzyme is extracted from beef crystalline lens by the method described by Hayman S. and Kinoshita J. H. (J. Biol Chem., 1965, 240, 2,877). The percentage of inhibition of the capacity of the enzyme to reduce glyceraldehyde to glycerol under the effect of the product to be tested is determined by the spectrophotometric determination of the amount of NADPH reacting according to the method described by Hayman and Kinoshita. We give below in parentheses after each product the value of the log 1/CI50 where CI50 represents the concentration expressed in mole/l resulting in 50% inhibition of the enzymatic activity: COR 19 85 (4.9); COR 19 91 (5.5); COR 19 93 (5.1); COR 19 94 (5.2); COR 19 99 (5.4); COR 35 01 (6.9); COR 35 02 (5.15); COR 35 07 (6.3); COR 35 09 (5.7); COR 35 11 (5.9); COR 35 19 (5.8); COR 35 22 (5.2).

mice = experiment: Toxicity in mice; format: in vivo; settings: for LD0: orally
rats [1] = experiment: Neuropathy with streptozotocin: sorbitol and inositol levels in sciatic nerves, glycemia; format: in vivo; settings: 100 mg/kg/d
Procedure: Four batches of 10 rats weighing about 200 g were treated from D-2 to D+3 with a gummy julep of the product to be tested. On D O the animals received an i.p. injection of 100 mg/kg of streptozotocin dissolved in a citrate buffer. The glycemia of the rats was determined 24 hours and 3 days after injection of the streptozotocin and the sciatic nerves were removed to determine the sorbitol and inositol levels. […] COR 35 01 had no effect on the glycemia of the animals.

rats [2] = experiment: Diuretic activity, method of Lipschitz et coll.; format: in vivo; settings: oral administration of 20 mg/kg
Procedure: Besides their advantage in curative and preventive therapy of complications from diabetes, the products, which are the object of this invention, are also useful as diuretics. Thus, product COR35 07, tested in rats according to the method of Lipschitz et coll.(J. Pharm. Exp. Therap., 1943, 79, 97-110), results in an increase in urinary excretion of sodium (natruria was multiplied by 2.6 after oral administration of 20 mg/kg).

rats [3] = experiment: Galactose cataracts: degree of cataract marked 0 to 3 by ophthalmoscope; format: in vivo; settings: 20% galactose diet, 100 mg/kg d
Procedure: Rats, 14 days old, were kept in a cage of 11 with a mother for 3 days. From the 4th to the 9th day, the animals received the product to be tested or the reference product. At the end of pretreatment, the mothers were removed. Two out of the 11 animals were eliminated to obtain batches of homogenous weight. The selected rats were divided 3 by 3 into cages at random, and the diet containing 20% galactose was put in place. […] The degree of cataract was evaluated by a marking system from 0 to 3.
The marks given to the treated animals were compared with those of the control animals by the Mann and Whitney U test (D. Schwartz, "Statistical Methods for the Use of Physicians and Biologists," Ed. Flammarion, Paris, 1963).

Compound `CCCc1c(-c2ccc(C(=O)OC)cc2)oc2cc(NC(=O)CN3CCOCC3)ccc2c1=O` [COR35 17, methyl 7-(morpholinoacetamido)-3-propyl-4'-flavonecarboxylate] has a mortality (Toxicity in mice; oral administration of 1000 mg/kg) of 10%.

`CC(=O)Nc1ccc2c(=O)cc(-c3ccc(C(=O)O)cc3)oc2c1` [COR 19 85, 7-acetamido-4'-flavonecarboxylic acid] showed an IC50 (aldose reductase) of 12.6 µM.

With `CCCc1c(-c2ccc(C(=O)O)cc2)oc2cc(NC(C)=O)ccc2c1=O` [COR 19 91, 7-acetamido-3-propyl-4'-flavonecarboxylic acid] the IC50 (aldose reductase) was 3.16 µM and the LD0 (mice) was “more than 2000 mg/kg”.

With `CCc1c(-c2ccc(C(=O)O)cc2)oc2cc(NC(C)=O)ccc2c1=O` [COR 19 93, 7-acetamido-3-ethyl-4'-flavonecarboxylic acid] the IC50 (aldose reductase) was 7.94 µM.

For `CC(=O)Nc1ccc2c(=O)c(OC(C)=O)c(-c3ccc(C(=O)O)cc3)oc2c1` [COR 19 94, 7-Acetamido-3-acetoxy-4'-flavonecarboxylic acid], the IC50 (aldose reductase) was 6.31 µM and the LD0 (mice) was “more than 2000 mg/kg”.

In the case of `CCCc1c(-c2ccc(C(=O)OC)cc2)oc2cc(NS(C)(=O)=O)ccc2c1=O` [COR 19 99, methyl 7-methanesulfonamido-3-propyl-4'-flavonecarboxylate], the IC50 (aldose reductase) was 3.98 µM.

In the case of `CCCc1c(-c2ccc(C(=O)O)cc2)oc2cc(NS(C)(=O)=O)ccc2c1=O` [COR 35 01, 7-methanesulfonamido-3-propyl-4'-flavonecarboxylic acid], the “sorbitol level in the sciatic nerves” value (rats [1]; D-2 to D+3, control 0.983±0.334) was 0.426 ± 0.171 mg/kg, the “inositol level in the sciatic nerves” value (rats [1]; D-2 to D+3, control 1.6555±0.372) was 1.184 ± 0.340 mg/kg and the IC50 (aldose reductase) was 0.126 µM. The mortality (mice; intraperitoneally, 250 mg/kg) was “did not cause any mortality”, the LD0 (mice) was “more than 2000 mg/kg” and the mortality (Toxicity in mice; ip, intraperitoneally, 500 mg/kg) was 20%.

For `CCCc1c(-c2ccc(C(=O)O)cc2)oc2cc(NC(=O)CN3CCOCC3)ccc2c1=O` [COR 35 02, 7-morpholinoacetamido-3-propyl-4'-flavonecarboxylic acid hydrochloride], the IC50 (aldose reductase) was 7.08 µM.

In the case of `COC(=O)c1ccc(-c2oc3cc(NS(C)(=O)=O)ccc3c(=O)c2OS(C)(=O)=O)cc1` [COR 35 07, methyl 7-methanesulfonamido-3-methanesulfonyloxy-4'-flavonecarboxylate], the “natruria multiplied by (increase in urinary excretion of sodium)” value (rats [2]) was 2.6 and the IC50 (aldose reductase) was 0.501 µM.

With `CCCc1c(-c2ccc(C(=O)O)cc2)oc2cc(S(=O)(=O)N(C)C)ccc2c1=O` [COR 35 09, N,N-7-dimethylsulfamoyl-3-propyl-4'-flavonecarboxylic acid] the IC50 (aldose reductase) was 2 µM, the “galactose cataract average index D + 1” value (rats [3]; D+1, marks 0 to 3) was 0.0 and the “galactose cataract average index D + 2” value (rats [3]; D+2, marks 0 to 3) was 0.0. The “galactose cataract average index D + 3” value (rats [3]; D+3, marks 0 to 3) was 0.031, the “galactose cataract average index D + 4” value (rats [3]; D+4, marks 0 to 3, S) was 0.47 and the “galactose cataract average index D + 5” value (rats [3]; D+5, marks 0 to 3, S) was 0.97. The “galactose cataract average index D + 6” value (rats [3]; D+6, marks 0 to 3, S) was 1.44, the “galactose cataract average index D + 7” value (rats [3]; D+7, marks 0 to 3, S) was 1.69 and the “galactose cataract average index D + 8” value (rats [3]; D+8, marks 0 to 3, S) was 1.81. The “galactose cataract average index D + 9” value (rats [3]; D+9, marks 0 to 3, S) was 2.06, the “galactose cataract average index D + 10” value (rats [3]; D+10, marks 0 to 3, S) was 1.88 and the “galactose cataract average index D + 11” value (rats [3]; D+11, marks 0 to 3, S) was 1.69. The “galactose cataract average index D + 12” value (rats [3]; D+12, marks 0 to 3, S) was 1.81 and the “galactose cataract average index D + 13” value (rats [3]; D+13, marks 0 to 3, S) was 1.50.

Work on `CCCc1c(-c2ccc(C(=O)O)cc2)oc2cc(S(=O)(=O)NC)ccc2c1=O` [COR 35 11, N-7-methylsulfamoyl-3-propyl-4'-flavonecarboxylic acid] yielded an IC50 (aldose reductase) of 1.26 µM.

`CCCc1c(-c2ccc(C(=O)O)cc2)oc2cc(S(=O)(=O)N(C)CCO)ccc2c1=O` [COR 35 19, 7-(N-hydroxyethyl N-methylsulfamoyl)-3-propyl-4'-flavonecarboxylic acid] gave an IC50 (aldose reductase) of 1.58 µM.

`CCCc1c(-c2ccc(C(=O)O)cc2)oc2cc(S(N)(=O)=O)ccc2c1=O` [COR 35 22, 7-sulfamoyl-3-propyl-4'-flavonecarboxylic acid] showed an IC50 (aldose reductase) of 6.31 µM.
